Results reported in patent US20250041389A1, “ENHANCING ABSORPTION OF DIETARY COMPOUNDS TO PROMOTE HEALTH” (ARIZONA BOARD OF REGENTS ON BEHALF OF THE UNIVERSITY OF …, priority 2023, published 2025).

Experiments:
[1] = test system: rheumatoid arthritis model; assay: Joint inflammation in a rheumatoid arthritis model; type: in vivo
[2] = test system: TGF-β signaling in human breast cancer cells; assay: Inhibition of TGF-β signaling in human breast cancer cells; type: cell-based
[3] = test system: breast cancer bone metastasis models; assay: Osteolysis in breast cancer bone metastasis models; type: in vivo
ovariectomized rats = assay: Bone loss in ovariectomized rats (FDA-approved model for testing osteoporosis treatments); type: in vivo

Compound	joint inflammation [1]	TGF-β signaling [2]	osteolysis [3]	bone loss (ovariectomized rats)	bone-resorbing osteoclasts (ovariectomized rats)
shogaols	prevent				
gingerols	prevent				
COc1cc(/C=C/C(=O)CC(=O)/C=C/c2ccc(O)c(OC)c2)ccc1O [curcumin]	prevent	inhibit	mitigate	prevent	decreasing
